Columns and labels:
NO signaling in DC = test: NO production in bone marrow-derived CD11c+ dendritic cells (DAF-2DA); assay type: cell-based, mouse; details: 100 μg/ml 15mer peptide; Balb/c DC; compared to ISL-negative peptides
Method: Bone marrow cells from Balb/c (A and B) or DBA/1 (C and D) mice were differentiated into DCs in culture with GM-CSF ([…]) and IL-4 ([…]). CD11c+ DCs were purified using magnetic beads with >95% purity. DCs were then incubated with SE-positive (65-79*0401 or 65-79*0404), or with SE-negative (65-79*0402 or 65-79*0403) 15mer peptides and NO production was measured as described below. The results are expressed as mean±SEM fluorescence units (FU), or FU per minute. *p<0.01 compared to all ligand controls.
DCs play a key role in immune regulation. […] DC cells were incubated over time with 100 μg/ml of ISL-positive or -negative 15mer peptides, and NO production was measured.
To determine the rate of NO production, cells were loaded with 20 μM of the fluorescent NO probe 4,5-diaminofluorescein diacetate (DAF-2DA) and the fluorescence level was recorded every 5 minutes over a period of 500 minutes using a Fusion αHT system (PerkinElmer Life Sciences) at an excitation wavelength of 488 nm and emission wavelength of 515 nm. To determine IDO enzymatic activity, the generation of its product, kynurenine was measured (Takikawa et al. 1988. J Biol Chem 263:2041-2048.; herein incorporated by reference in its entirety). Cytokine concentrations were measured in cell culture supernatants using a Luminex platform (Millipore Corporation, Danvers, Mass.). […]

[1] = system: Human fibroblast M1 cells; details: previously determined; cited from earlier work
CD4+IL17A+ T cells = test: Th17 differentiation and IL-17 production in DC/CD4+ T cell co-culture; assay type: cell-based, mouse; details: peptide-stimulated DCs; naïve T cells, Th17-polarizing cocktail, 6 days
Method: DBA/1 bone marrow-derived CD11c+DCs were cultured overnight in the presence or absence of (A) ISL 65-79*0401 or ISL-negative control 65-79*0402, or (B) ISL-positive T-DRB1*0401 tetramers, versus ISL-negative T-DRB1*0301, or T-DRB1*1501 tetramers. Syngeneic splenic CD4+CD25−CD62L+CD44− naïve T cells plus a Th17-differentiation cytokine/antibody cocktail were then added to the culture and incubated for 6 days. Intracellular IL17A was determined by flow cytometry. On the left: a representative experiment, one of three repetitions, showing percentages of CD4+IL17A+ cells as dot plots. On the right: bar graphs show results presented as mean percentage±SD of replicate samples.
(A) DBA/1 bone marrow-derived CD11c+ DCs were cultured overnight with different peptidic ligands as above. Syngeneic splenic CD4+ T cells plus a Th17-polarizing cocktail were added to the culture and incubated for 6 days. IL-17A-positive cells were quantified by flow cytometry. On the left: dot plots showing percentage of CD4+IL17A+ T cells. […]
After 6 days, cells were stimulated with PMA (5 ng/ml) and ionomycin (500 ng/ml) for the last 6 hrs of culture. […] Mean florescence intensity and percentages of stained cells were determined by flow cytometry.

Th17 cells = test: Expansion of pathogen-specific Th17 cells in immunized CII-TCR Tg mice; assay type: in vivo

H-KDLLEQKRAAVDTYC-NH2 [65-79*0401]
NO production (NO signaling in DC): much more robust NO production | optimal concentration for NO production [1]: 50 µM | differentiation of CD4+IL17A+ T cells (CD4+IL17A+ T cells): significant increase | total antigen non-stimulated Th17 cells in draining lymph nodes (Th17 cells; 100 μg i.p. days 0, 7, 14, 21, day 42): significant increase | percentage of Th17 cells after 6 days in culture (Th17 cells; lymph node cells re-stimulated with bacterial antigen PPD): 13.1±0.5% | percentage of Th17 cells after 6 days in culture (Th17 cells; lymph node cells stimulated with CII): 8.4±0.5% | percentage of Th17 cells after 6 days in culture (Th17 cells; lymph node cells, without any antigen stimulation): 5.4±0.4%
